# Measurements taken from patent publication EP0499581B1, “Stabilized polymer composition” (Ciba Specialty Chemicals Holding Inc., priority 1991, dated 1992).
# How the values were obtained:
# Assay type in all cases: physicochemical
# [1] = Yellowing (ASTM D 1925) after UV exposure in Weather-O-meter WRC 600, ABS/SAN/polycarbonate blend (Example 1); settings: Weather-O-meter WRC 600, 2 mm plates
# Experimental: Dieses Copolymer wird in Pulverform mit derselben Menge von Styrolacrylnitril-copolymer (Suspension SAN, Ube Cycon) und der doppelten Menge von pulverförmigem Polycarbonat (PC 135, General Electric), mit gegebenenfalls weiteren Additiven, wie z.B. einem UV-Absorber, in einem Rhönrad vermischt. Die Mischung wird in einem Zweischnecken-Extruder (Temperatur-Zyklus: 165°C, 250°C, 275°C, 275°C, 270°C; Umdrehungen/Minute: 45) hergestellt.
# (§1) Die erhaltenen Mischungen werden in einer Heizpresse bei 200°C zu 2 mm starken Platten gepresst. Aus den Platten werden Prüfkörper von 40 x 40 x 2 mm ausgeschnitten. Diese werden in einem Weather-O-meter® WRC 600 mit UV-Licht belichtet. In regelmässigen Abständen werden Proben entnommen und deren Vergilbung gemäss ASTM D 1925 gemessen.
# Die mit der Belichtungszeit einhergehende Vergilbung, ausgedrückt in ΔYI (YI = Yellowness Index; ΔYI = Unterschied in YI-Wert zwischen unbelichteter und entsprechender belichteter Probe) und nach der angegebenen Methode ermittelt, ist in der Tabelle 1 wiedergegeben.
# [2] = Yellowing (ASTM D 1925) after UV exposure in Weather-Ometer WRC 600, ABS/SAN/polycarbonate blend (Example 2); settings: Weather-Ometer WRC 600, 2 mm plates
# Experimental: (§2) Beispiel 2: Das ABS-Copolymer gemäss Beispiel 1 wird in Pulverform mit derselben Menge von Styrolacrylnitril-Copolymer (Suspension SAN, Kostil, Montedipe), mit gegebenenfalls weiteren Additiven, wie z.B. einem UV-Absorber (Tinuvin® 234, Ciba-Geigy AG) und einem Phosphit (Irgafos® 168, Ciba-Geigy AG), in einem Rhönrad vermischt. Die Mischung wird in einem Zweischnecken-Extruder (Temperatur-Zyklus : 210°C/ 210°C/ 215°C/ 220°C) verarbeitet und granuliert.
# (§3) Das erhaltene ABS-Granulat wird mit derselben Menge von Polycarbonat-Granulat (PC Calibre®, Dow) vermischt. Das Polymerblend wird in einem Zweischnecken-Extruder (Temperatur Zyklus : 240°C/ 240°C/ 250°C) hergestellt.
# as §1, with “Mischungen (Blends)” for “Mischungen”, “Diese Plättchen” for “Diese”, “Weather-Ometer®” for “Weather-O-meter®”, “Vergilbung (oder Yellowness Index)” for “Vergilbung”, “gemäss Methode” for “gemäss”
# Die mit der Belichtungszeit einhergehende Vergilbung is in der Tabelle 2 wiedergegeben.
# [3] = Impact bending strength (ASTM D 4508-85) after UV exposure in Xenotest 450, ABS/SAN/polycarbonate blend (Example 2); parameters: key to Schlagbiegefestigkeit in kJ/m^2 nach 200 Stunden in Xenotest 450: KB = Kein Bruch; settings: energy required to break
# Experimental: as §2, §3
# Weitere Prüfkörper von 12,7 x 60,0 x 2,0 mm werden in einem Xenotest 450 mit UV-Licht belichtet. In regelmässigen Abständern werden Proben entnommen und deren Schlagbiegefestigkeit gemäss Methode ASTM D 4508-85 gemessen. Dabei erfolgt der Pendelschlag auf die belichtete Seite der Probe.
# In Tabelle 3 ist die für den Bruch der Probe erforderliche Energie angegeben. Je höher dieser Wert ist, desto höher ist die Schlagbiegefestigkeit der Probe. Bei ungeschädigten Proben erfolgt kein Bruch.
# [4] = Yellowing (ASTM D 1925) after oven ageing, ABS/PBT blend (Example 3)
# Experimental: Beispiel 3: Das ABS-Copolymer Granulat gemäss Beispiel 2 wird mit derselben Menge Polybutylenterephtahlat, (PBT CRASTIN® S 600, Ciba-Geigy) vermischt. Das Polymerblend wird in einem Zweischnecken-Extruder (Temperatur-Zyklus: 210°C/230°C/ 235°C/ 240°C) hergestellt. Proben von 12,7 x 60,0 x 2,0 mm werden in einer Arburg-Spritzgussanlage gespritzt bei einer maximalen Verarbeitungstemperatur von 260°C. Diese Plättchen werden in einem Ofen bei 200°C und bei 160°C gealtert. In regelmässigen Abständen werden die Proben entnommen und deren Vergilbung gemäss ASTM D 1925 gemessen.
smiles,measurement,setting,value
"CC(C)(c1ccccc1)c1cc(-n2nc3ccccc3n2)c(O)c(C(C)(C)c2ccccc2)c1 [0,3 % UV- Absorber *]",Δ YI nach Belichtungszeit von 250 h,[1]; 250 h UV,"-7,0"
same,Δ YI nach Belichtungszeit von 500 h,[1]; 500 h UV,"-3,0"
same,Δ YI nach Belichtungszeit von 1000 h,[1]; 1000 h UV,"7,5"
same,Δ YI nach Belichtungszeit von 1250 h,[1]; 1250 h UV,"12,1"
same,Δ YI nach Belichtungszeit von 1500 h,[1]; 1500 h UV,"14,9"
"CC(C)(c1ccccc1)c1cc(-n2nc3ccccc3n2)c(O)c(C(C)(C)c2ccccc2)c1 [0,50 % TINUVIN® 234]",Δ YI nach Belichtungszeit von 500 h,[2]; 500 h UV,-7
same,Δ YI nach Belichtungszeit von 1000 h,[2]; 1000 h UV,"1,1"
same,Δ (YI) nach Belichtungszeit von 2000 h,[2]; 2000 h UV,"16,1"
same,Δ (YI) nach Belichtungszeit von 3000 h,[2]; 3000 h UV,"23,4"
same,Δ (YI) nach Belichtungszeit von 4000 h,[2]; 4000 h UV,"23,9"
same,Schlagbiegefestigkeit in kJ/m^2 nach 200 Stunden in Xenotest 450,[3]; 200 h Xenotest 450,KB
same,Schlagbiegefestigkeit in kJ/m^2 nach 300 Stunden in Xenotest 450,[3]; 300 h Xenotest 450,15±2 kJ/m^2
same,Schlagbiegefestigkeit in kJ/m^2 nach 500 Stunden in Xenotest 450,[3]; 500 h Xenotest 450,13±1 kJ/m^2
same,Schlagbiegefestigkeit in kJ/m^2 nach 1000 Stunden in Xenotest 450,[3]; 1000 h Xenotest 450,11±1 kJ/m^2
same,Schlagbiegefestigkeit in kJ/m^2 nach 1500 Stunden in Xenotest 450,[3]; 1500 h Xenotest 450,11±1 kJ/m^2
same,Δ YI nach Ofenalterung bei 160°C nach 60 min,"[4]; oven 160°C, 60 min","4,7"
same,Δ YI nach Ofenalterung bei 160°C nach 90 min,"[4]; oven 160°C, 90 min","10,8"
same,Δ YI nach Ofenalterung bei 160°C nach 120 min,"[4]; oven 160°C, 120 min","11,6"
same,Δ YI nach Ofenalterung bei 160°C nach 160 min,"[4]; oven 160°C, 160 min","20,4"
same,Δ YI nach Ofenalterung bei 160°C nach 840 min,"[4]; oven 160°C, 840 min","56,3"
same,Δ YI nach Ofenalterung bei 200°C nach 10 min,"[4]; oven 200°C, 10 min","6,0"
same,Δ YI nach Ofenalterung bei 200°C nach 20 min,"[4]; oven 200°C, 20 min","16,4"
same,Δ YI nach Ofenalterung bei 200°C nach 40 min,"[4]; oven 200°C, 40 min","33,1"
same,Δ YI nach Ofenalterung bei 200°C nach 60 min,"[4]; oven 200°C, 60 min","43,9"
same,Δ YI nach Ofenalterung bei 200°C nach 90 min,"[4]; oven 200°C, 90 min","55,3"
